# Laboratory results: ChEMBL document CHEMBL5143637, “Design, synthesis and antibacterial activity against pathogenic mycobacteria of conjugated hydroxamic acids, hydrazides and O-alkyl/O-acyl protected hydroxamic derivatives” (Bioorg Med Chem Lett, 2022)
# pIC50: −log10 of the molar value.
# Assays:
# [1] = Inhibition of Mycobacterium tuberculosis H37Rv PDF expressed in Escherichia coli using N-formyl-methionine-alanine-serine as substrate incubated for 2.5 mins by fluorescence based microplate reader analysis
# [2] = test system: Mycobacteroides abscessus; experiment: Antimycobacterial activity against Mycobacterium abscessus CIP104536T with smooth morphotype assessed as inhibition of mycobacterial growth incubated for 3 to 5 days by resazurin microtiter assay; type: functional; settings: time 3-5 day
# [3] = test system: Mycobacteroides abscessus; experiment: Antimycobacterial activity against Mycobacterium abscessus CIP104536T with rough morphotype assessed as inhibition of mycobacterial growth incubated for 3 to 5 days by resazurin microtiter assay; type: functional; settings: time 3-5 day
# Mycobacterium marinum = experiment: Antimycobacterial activity against Mycobacterium marinum ATCC BAA-535/M assessed as inhibition of mycobacterial growth incubated for 10 to 14 days by resazurin microtiter assay; type: functional; settings: time 10-14 day
# [4] = test system: Mycobacterium tuberculosis; experiment: Antimycobacterial activity against Mycobacterium tuberculosis mc2 6230 assessed as inhibition of mycobacterial growth incubated for 10 to 14 days by resazurin microtiter assay; type: functional; settings: time 10-14 day
# [5] = Cytotoxicity against mouse BMDM cells; type: toxicity, cell-based; settings: BMDM cells (bone marrow-derived macrophages)
# [6] = test system: Mycolicibacterium smegmatis; experiment: Antimycobacterial activity against wild type Mycobacterium smegmatis mc2 155 assessed as inhibition of mycobacterial growth incubated for 3 to 5 days by resazurin microtiter assay; type: functional; settings: time 3-5 day
# [7] = test system: Mycolicibacterium smegmatis; experiment: Antimycobacterial activity against Mycobacterium smegmatis mc2 155 harbouring pMyC empty vector assessed as inhibition of mycobacterial growth incubated for 3 to 5 days by resazurin microtiter assay; type: functional; settings: time 3-5 day
# [8] = test system: Mycolicibacterium smegmatis; experiment: Antimycobacterial activity against Mycobacterium smegmatis mc2 155 harbouring pMyC::PDFMtb overexpression mutant assessed as inhibition of mycobacterial growth incubated for 3 to 5 days by resazurin microtiter assay; type: functional; settings: time 3-5 day
# [9] = Selectivity index, ratio of MIC50 for antimycobacterial activity against Mycobacterium smegmatis mc2 155 harbouring pMyC empty vector to MIC50 for antimycobacterial activity against wild type Mycobacterium smegmatis mc2 155; type: functional
# [10] = Selectivity index, ratio of MIC90 for antimycobacterial activity against Mycobacterium smegmatis mc2 155 harbouring pMyC empty vector to MIC90 for antimycobacterial activity against wild type Mycobacterium smegmatis mc2 155; type: functional
# [11] = Selectivity index, ratio of MIC50 for antimycobacterial activity against Mycobacterium smegmatis mc2 155 harbouring pMyC::PDFMtb overexpression mutant to MIC50 for antimycobacterial activity against wild type Mycobacterium smegmatis mc2 155; type: functional
# [12] = Selectivity index, ratio of MIC90 for antimycobacterial activity against Mycobacterium smegmatis mc2 155 harbouring pMyC::PDFMtb overexpression mutant to MIC90 for antimycobacterial activity against wild type Mycobacterium smegmatis mc2 155; type: functional
# [13] = (§1) Cytotoxicity against C57BL/6 mouse BMDM cells assessed as reduction in cell viability measured after 24 hrs by resazurin dye based assay; type: toxicity; settings: C57BL/6, mouse, BMDM cells (bone marrow-derived macrophages)
# BMDM = experiment: as §1; type: toxicity; settings: mouse, bmdm, 24 h
# [14] = test system: Mycobacterium tuberculosis; experiment: Antimycobacterial activity against Mycobacterium tuberculosis H37Rv assessed as inhibition of bacterial growth incubated for 8 days; type: functional; settings: 192 h, time 8 day
compound,measurement,setting,value
CCCC[C@H](CN(O)C=O)C(=O)N1CCC[C@H]1C(=O)Nc1ccccn1,pIC50,[1],7.16
NCC[C@H](O)C(=O)N[C@@H]1C[C@H](N)[C@@H](O[C@H]2O[C@H](CN)[C@@H](O)[C@H](O)[C@H]2O)[C@H](O)[C@H]1O[C@H]1O[C@H](CO)[C@@H](O)[C@H](N)[C@H]1O [AMIKACIN],MIC50,[2],2.3 µg/mL
same,MIC90,[2],3.4 µg/mL
same,MIC50,[3],4.3 µg/mL
same,MIC90,[3],5.9 µg/mL
same,MIC50,Mycobacterium marinum,0.62 µg/mL
same,MIC90,Mycobacterium marinum,1.7 µg/mL
same,MIC50,[4],0.24 µg/mL
same,MIC90,[4],0.37 µg/mL
same,CC50,[5],> 90 µg/mL
NC[C@H]1O[C@H](O[C@H]2[C@H](O)[C@@H](O[C@H]3O[C@H](CO)[C@@H](O)[C@H](N)[C@H]3O)[C@H](N)C[C@@H]2N)[C@H](O)[C@@H](O)[C@@H]1O [KANAMYCIN],MIC50,[6],0.4 µg/mL
same,MIC90,[6],0.94 µg/mL
same,MIC50,[7],0.48 µg/mL
same,MIC90,[7],1.07 µg/mL
same,MIC50,[8],0.49 µg/mL
same,MIC90,[8],0.87 µg/mL
same,Ratio,[9],1.2
same,Ratio,[10],1.14
same,Ratio,[11],1.23
same,Ratio,[12],0.93
NNC(=O)/C=C/c1ccc(-c2ccccc2)cc1,MIC50,[2],> 100 µg/mL
same,MIC50,[3],18.9 µg/mL
same,MIC90,[3],> 100 µg/mL
same,MIC50,Mycobacterium marinum,22.2 µg/mL
same,MIC90,Mycobacterium marinum,71.5 µg/mL
same,MIC50,[4],13.1 µg/mL
same,MIC90,[4],22 µg/mL
same,CC50 at 24 h,[13],125 µg/mL
same,MIC50,[6],9.6 µg/mL
same,MIC90,[6],53.6 µg/mL
same,MIC50,[7],7.2 µg/mL
same,MIC90,[7],43.8 µg/mL
same,MIC50,[8],56.6 µg/mL
same,MIC90,[8],> 200 µg/mL
same,Ratio,[9],0.75
same,Ratio,[10],0.75
same,Ratio,[11],5.9
same,Ratio,[12],> 3.7
Cl.O=C(/C=C/c1ccncc1)NO,MIC50,[2],> 100 µg/mL
same,MIC50,[3],> 100 µg/mL
same,MIC50,Mycobacterium marinum,12.6 µg/mL
same,MIC90,Mycobacterium marinum,54 µg/mL
same,MIC50,[4],32.1 µg/mL
same,MIC90,[4],33.6 µg/mL
same,CC50,BMDM,< 10 µg/mL
CO[C@H]1/C=C/O[C@@]2(C)Oc3c(C)c(O)c4c(O)c(c(/C=N/N5CCN(C)CC5)c(O)c4c3C2=O)NC(=O)/C(C)=C\C=C\[C@H](C)[C@H](O)[C@@H](C)[C@@H](O)[C@@H](C)[C@H](OC(C)=O)[C@@H]1C [RIFAMPIN],MIC50,[6],0.76 µg/mL
same,MIC90,[6],0.76 µg/mL
same,MIC50,[7],0.57 µg/mL
same,MIC90,[7],2.83 µg/mL
same,MIC50,[8],0.63 µg/mL
same,MIC90,[8],2.4 µg/mL
same,Ratio,[9],0.75
same,Ratio,[10],1.09
same,Ratio,[11],0.83
same,Ratio,[12],0.93
NNC(=O)c1ccncc1 [ISONIAZID],MIC50,Mycobacterium marinum,2.8 µg/mL
same,MIC90,Mycobacterium marinum,9.2 µg/mL
same,MIC50,[4],0.07 µg/mL
same,MIC90,[4],0.11 µg/mL
same,MIC,[14],0.1 µg/mL
same,MIC50,[6],1.4 µg/mL
same,MIC90,[6],3.1 µg/mL
same,MIC50,[7],1.3 µg/mL
same,MIC90,[7],2.7 µg/mL
same,MIC50,[8],1.2 µg/mL
same,MIC90,[8],2.5 µg/mL
same,Ratio,[9],0.9
same,Ratio,[10],0.86
same,Ratio,[11],0.84
same,Ratio,[12],0.8
same,CC50,[5],> 20 µg/mL
